In publication PMC2887688 (Journal of biomolecular screening, 2010):
Entries after “also recorded” stand apart in the source; their conditions may differ. Blank lines part the entries; values can stand above or below the compound they belong to.

How the values were obtained:
hsFATP5 = biological target: T1, hsFATP5 (Homo sapiens, UniProt Q9Y2P5); test: BODIPY-FA; format: cell-based; conditions: hsFATP5 cells, data not shown
T1 sequence (Q9Y2P5 1-690): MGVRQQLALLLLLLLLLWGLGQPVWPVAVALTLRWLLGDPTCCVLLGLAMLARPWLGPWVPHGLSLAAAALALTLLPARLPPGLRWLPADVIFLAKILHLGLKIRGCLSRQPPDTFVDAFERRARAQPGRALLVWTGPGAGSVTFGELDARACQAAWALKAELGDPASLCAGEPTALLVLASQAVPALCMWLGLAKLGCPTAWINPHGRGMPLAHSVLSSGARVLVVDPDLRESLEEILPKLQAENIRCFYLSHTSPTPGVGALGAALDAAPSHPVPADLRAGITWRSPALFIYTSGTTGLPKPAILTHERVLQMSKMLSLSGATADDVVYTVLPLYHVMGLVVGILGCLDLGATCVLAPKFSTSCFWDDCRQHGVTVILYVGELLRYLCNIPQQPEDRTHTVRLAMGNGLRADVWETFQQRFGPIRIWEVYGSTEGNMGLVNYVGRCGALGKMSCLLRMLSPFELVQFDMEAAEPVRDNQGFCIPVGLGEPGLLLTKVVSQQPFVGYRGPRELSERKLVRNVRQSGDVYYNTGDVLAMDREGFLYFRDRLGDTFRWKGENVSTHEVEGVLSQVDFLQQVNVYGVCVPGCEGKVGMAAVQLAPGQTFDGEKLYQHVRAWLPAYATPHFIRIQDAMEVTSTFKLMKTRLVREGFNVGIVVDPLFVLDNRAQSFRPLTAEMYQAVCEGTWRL

hsFATP4 = hsFATP4 (Homo sapiens, UniProt Q6P1M0); test: BODIPY-FA; format: cell-based; conditions: hsFATP4 cells
3T3-L1 adipocytes = test: LCFA; format: cell-based, murine; conditions: insulin 0.2 – 1.7 uM
[1] = system: undifferentiated 3T3-L1 preadipocytes; test: BODIPY-FA uptake in undifferentiated 3T3-L1 preadipocytes/fibroblasts, FLIPR; format: cell-based, murine

hsFATP4, sequence (Q6P1M0 whole entry): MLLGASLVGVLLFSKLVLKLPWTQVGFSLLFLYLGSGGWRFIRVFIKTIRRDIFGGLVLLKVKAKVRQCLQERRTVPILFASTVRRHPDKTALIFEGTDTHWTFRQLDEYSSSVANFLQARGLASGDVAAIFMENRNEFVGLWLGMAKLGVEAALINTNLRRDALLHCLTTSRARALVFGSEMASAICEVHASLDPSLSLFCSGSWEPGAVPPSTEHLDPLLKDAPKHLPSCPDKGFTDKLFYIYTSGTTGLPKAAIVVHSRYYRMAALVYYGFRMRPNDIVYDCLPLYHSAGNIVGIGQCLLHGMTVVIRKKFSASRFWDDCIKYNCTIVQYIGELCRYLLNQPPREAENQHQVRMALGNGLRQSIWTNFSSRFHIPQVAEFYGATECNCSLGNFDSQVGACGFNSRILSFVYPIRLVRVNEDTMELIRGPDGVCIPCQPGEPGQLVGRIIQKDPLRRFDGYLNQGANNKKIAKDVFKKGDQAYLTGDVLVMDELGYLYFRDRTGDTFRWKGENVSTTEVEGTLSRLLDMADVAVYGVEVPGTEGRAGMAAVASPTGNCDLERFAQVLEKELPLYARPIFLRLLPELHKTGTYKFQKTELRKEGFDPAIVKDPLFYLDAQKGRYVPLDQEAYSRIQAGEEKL

inhibition of fatty acid uptake by FATP5 (in words) (hsFATP5): did not inhibit
inhibition of fatty acid uptake by FATP4 (in words) (hsFATP4; FLIPR concentration-response): did not inhibit
Compound: CCCCCCCCCCCCCCCC(=O)O [palmitic acid]

increase of fatty acid uptake signal by hsFATP4 at high concentration (in words) (hsFATP4; FLIPR): apparent signal increase at 100 uM
Compound: C[C@H](CCC(=O)O)[C@H]1CC[C@H]2[C@@H]3[C@@H](O)C[C@@H]4C[C@H](O)CC[C@]4(C)[C@H]3CC[C@]12C [ursodiol, ursodeoxycholic acid]

Compound: insulin: adipogenic hormone insulin, enhances LCFA uptake in adipocytes
maximal insulin-induced uptake over the baseline of adipocytes (3T3-L1 adipocytes): about two- to three-fold
effect on uptake in undifferentiated 3T3-L1 preadipocytes/fibroblasts [1]: much weaker effects; also recorded: minimal effect
